Ten compounds from ChEMBL document CHEMBL5034021, “Monomeric, Dimeric, and Trimeric Tropane Alkaloids from Pellacalyx saccardianus” (J Nat Prod, 2021) can be followed below.

Active and inactive are the calls of the source. No cut-off for these calls is given here.

The subject of one data set is MRC5. Nature of the data set: Cytotoxicity against human MRC5 assessed as cell viability measured for 72 hrs by cell titer glo luminescent assay. It is filed as cell-based. Particulars: for IC50: Homo sapiens, MRC5, 72 h.
The test system of a further data set is BXPC-3. Nature of the data set: Cytotoxicity against human BXPC-3 assessed as cell viability measured for 72 hrs by cell titer glo luminescent assay. It is filed as functional, cell-based. The settings on record: for IC50: BXPC-3, 72 h.
The next data set has as its system PANC-1. Nature of the data set: Cytotoxicity against human PANC-1 assessed as cell viability measured for 72 hrs by cell titer glo luminescent assay. It is filed as functional, cell-based. Particulars: for IC50: PANC-1, 72 h.
Data set [1] has as its system Trachea. Nature of the data set: Myorelaxant effect in Sprague-Dawley rat tracheal ring assessed as […] relaxation of carbachol-induced smooth muscle contraction by organ bath assay. It is filed as functional, tissue-based.
The test system of data set [2] is Trachea. In words: Myorelaxant effect in Sprague-Dawley rat tracheal ring assessed as relaxation of carbachol-induced smooth muscle contraction by organ bath assay. It is filed as functional.
The test system of another data set is ASPC1. Nature of the data set: Cytotoxicity against human ASPC1 assessed as cell viability measured for 72 hrs by cell titer glo luminescent assay. The settings on record: for IC50: ASPC1, 72 h. It counts as functional, cell-based.
Another data set relates to SW1990. Nature of the data set: Cytotoxicity against human SW1990 assessed as cell viability measured for 72 hrs by cell titer glo luminescent assay. It is filed as functional, cell-based. Particulars: for IC50: SW1990, 72 h.

Consider `O=C(/C=C/c1ccccc1)OC1CC2CCC(C1)N2C(CC(=O)OC1CC2CCC(C1)N2)c1ccccc1` (racemic), for which the IC50 in the data set on MRC5 was 9.8 µM; with BXPC-3, 4.6 µM; in the data set with PANC-1, 10.6 µM; with ASPC1, 6 µM; with SW1990 it was over 10 µM. Moreover, in the data set on Trachea [1], the EC50 was determined as 10.4 µM. Besides, the Emax in the data set with Trachea [2] was 71.9%.
As to `O=C(/C=C/c1ccccc1)OC1CC2CCC(C1)N2[C@@H](CC(=O)OC1CC2CCC(C1)N2)c1ccccc1` (some centres not stated), the IC50 is 8.4 µM in the data set with MRC5; 5.5 µM with BXPC-3; 10.4 µM with PANC-1; 5.8 µM in the data set with ASPC1; over 10 µM in the data set on SW1990.
In the case of `O=C(OC1CC2CCC(C1)N2)c1ccccc1` (configuration not stated), the EC50 in the data set on Trachea [1] is 7.83 µM. For the same compound, the Emax with Trachea [2] came out at 101%.
`Nc1ccn([C@@H]2O[C@H](CO)[C@@H](O)C2(F)F)c(=O)n1` [GEMCITABINE]: the IC50 amounted to 35.1 µM in the data set with MRC5; 25.9 µM in the data set on BXPC-3; 30 µM in the data set on PANC-1; 29.1 µM in the data set with ASPC1; 25.4 µM in the data set with SW1990.
`O=CN1C2CCC1CC(OC(=O)c1ccccc1)C2` (configuration not stated): the EC50 in the data set with Trachea [1] worked out at 3.61 µM. Further, in the data set with Trachea [2], the Emax is 97%.
Taken in the same sequence, the figures for `CN1[C@@H]2CC[C@H]1C[C@@H](OC(=O)C(CO)c1ccccc1)C2` (mixture of isomers) [ATROPINE] were 0.00098 µM and 112%.
With `O=C(/C=C/c1ccccc1)OC1CC2CCC(C1)N2` (configuration not stated), the Activity entry in the data set on MRC5 (human, mrc5, 72 h, time 72 hrs) was “Non-Toxic”. Further, the outcome in the data set on BXPC-3, in the data set with PANC-1, in the data set on ASPC1 and with SW1990 was inactive. In addition, the EC50 in the data set on Trachea [1] was 0.44 µM. The Emax in the data set on Trachea [2] came out at 82.5%.
Regarding `O=C(/C=C/c1ccccc1)OC1CC2CCC(C1)N2C(CC(=O)OC1CC2CCC(C1)N2C(CC(=O)OC1CC2CCC(C1)N2)c1ccccc1)c1ccccc1` (racemic), the IC50 was determined as 4.2 µM with MRC5; 2.2 µM with BXPC-3; 1.1 µM in the data set on PANC-1; 3.4 µM in the data set on ASPC1; 5.2 µM in the data set with SW1990.
In the case of `O=C(/C=C/c1ccccc1)OC1CC2CCC(C1)N2[C@H](CC(=O)OC1CC2CCC(C1)N2)c1ccccc1` (some centres not stated), the IC50 is over 10 µM with MRC5; 6.6 µM in the data set with BXPC-3; 9.9 µM with PANC-1; 7.7 µM in the data set on ASPC1; over 10 µM in the data set on SW1990.
For the compound `O=C(/C=C/c1ccccc1)OC1CC2CCC(C1)N2C(=O)CCc1ccc(O)cc1` (configuration not stated), the EC50 in the data set with Trachea [1] is 24.2 µM. For the same compound, in the data set with Trachea [2], the Emax was 106%.
